Columns and labels:
[1] = tested on: SARS-COV-2 variants (alpha, beta, gamma, delta, BA.1, BA.2) and USA-WA1/2020; type: cell-based; conditions: 10 μM, 48 hours, A549-ACE2+ cells
[2] = tested on: SARS-COV-2 variants (alpha, beta, gamma, delta, BA.1, BA.2) and USA-WA1/2020; type: cell-based; conditions: 10 μM, 48 hours, A549-ACE2+ cells; remark: listed apart in the source

CC(C)CC(=O)c1c(Nc2ccc(C(=O)O)cc2Cl)[nH]c2c(Cl)ccc([N+](=O)[O-])c2c1=O [Compound 1, 3-chloro-4-((8-chloro-3-(3-methylbutanoyl)-5-nitro-4-oxo-1,4-dihydroquinolin-2-yl)amino)benzoic acid]
viral mRNA levels [1]: reduces
percentage of viral nucleocapsid-positive cells [2]: reduces
